Values of other authors in PMC2360332 (British Journal of Cancer, 2007).

Legend:
breast cancer growth = test system: breast cancer growth; parameters: method as in Lippman and Bolan, 1975; conditions: ref Lippman and Bolan, 1975; cited from earlier work
breast cancer = conditions: cited from earlier work
[1] = test system: MNU-induced breast cancers in rats; conditions: ref Parikh et al, 2005; cited from earlier work
Source text: (§1) A peptide (α-fetoprotein-derived peptide (AFPep), sequence cyclo(EKTOVNOGN), where O is hydroxyproline) derived from the active site of α-fetoprotein (AFP) has been under investigation as a potential agent for prevention or therapy of oestrogen receptor-positive (ER+) breast cancer ([Mesfin et al, 2000], [2001]; [Bennett et al, 2002], [2006]; [DeFreest et al, 2004]).

[2] = test system: breast cancer that had become resistant to the cytostatic effects of tamoxifen; conditions: ref Bennett et al, 2002; cited from earlier work
Source text: as §1

[3] = parameters: method as in earlier work; conditions: high doses; ref Mesfin et al, 2001; Bennett et al, 2002, 2006; Parikh et al, 2005; cited from earlier work
immature mouse uterus = conditions: earlier study; ref Bennett et al, 2002; cited from earlier work
Source text: In fact, in this study and ...

[4] = test system: human breast cancer xenografts; conditions: cited from earlier work
Source text: as §1, with “2004]). […] In fact, in this study and ...” for “2004]).”

| Compound | Breast cancer growth (in words) (breast cancer growth) | Risk of primary breast cancers (in words) (breast cancer; high-risk patients, ref Fisher et al, 1998) | Breast cancer recurrences (in words) (breast cancer; ref Early Breast Cancer Trialists' Collaborative Group, 1992) | Development of carcinogen-induced mammary cancers in rats (in words) [1] | Growth of tamoxifen-resistant breast cancer (in words) [2] | Toxicity or side effects in previous work (in words) [3] | Tam-induced uterine hyperplasia (in words) (immature mouse uterus) | Oral activity (in words) ([4]; oral route, ref Bennett et al, 2006) | Growth of human breast cancer xenografts in mice (in words) ([4]; ref Mesfin et al, 2001) |
| --- | --- | --- | --- | --- | --- | --- | --- | --- | --- |
| CC/C(=C(\c1ccccc1)c1ccc(OCCN(C)C)cc1)c1ccccc1 [Tam, Tamoxifen, reference compound] | inhibit breast cancer growth | decrease the risk of primary breast cancers in high-risk patients | inhibit breast cancer recurrences |  |  |  |  |  |  |
| cyclo(EKTOVNOGN) (head to tail) [AFPep] |  |  |  | prevent the development of carcinogen-induced mammary cancers in rats | inhibit the growth of breast cancer that had become resistant to the cytostatic effects of tamoxifen | no evidence of toxicity or side effects has been detected | interferes with the uterine hyperplasia induced by Tam | active by the oral route | inhibit the growth of human breast cancer xenografts in mice |
